{"source": "paper PMC8533333", "about": "“Melatonin Analogues Potently Inhibit MAO-B and Protect PC12 Cells against Oxidative Stress” (Antioxidants, 2021)", "key": {"[1]": {"tested_on": "MAO-B", "parameters": "method as in PMID 32752896", "details": "cited from earlier work"}, "[2]": {"biological_target": "T1, Human recombinant MAO-B (hMAO-B) (Homo sapiens, UniProt P27338)", "T1 construct": "purchased Sigma Aldrich; host or cells: insect cells", "T1 sequence (P27338 1-520)": "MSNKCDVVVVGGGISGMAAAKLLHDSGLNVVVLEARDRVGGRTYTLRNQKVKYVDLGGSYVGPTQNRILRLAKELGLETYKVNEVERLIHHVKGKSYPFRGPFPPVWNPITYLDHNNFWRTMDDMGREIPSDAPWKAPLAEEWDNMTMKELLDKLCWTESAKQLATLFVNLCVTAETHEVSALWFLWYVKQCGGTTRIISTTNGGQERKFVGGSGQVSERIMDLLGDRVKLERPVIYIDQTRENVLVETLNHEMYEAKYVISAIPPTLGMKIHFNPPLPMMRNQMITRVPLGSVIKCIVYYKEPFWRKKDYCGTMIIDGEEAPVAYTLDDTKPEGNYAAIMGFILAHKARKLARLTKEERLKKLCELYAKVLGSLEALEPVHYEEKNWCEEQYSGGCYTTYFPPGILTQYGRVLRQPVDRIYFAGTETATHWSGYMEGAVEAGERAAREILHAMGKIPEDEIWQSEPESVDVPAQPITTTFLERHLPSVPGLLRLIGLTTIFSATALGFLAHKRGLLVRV", "assay": "MAO-B enzyme assay (Amplex Red, resorufin fluorescence)", "assay_type": "biochemical", "details": "for Selectivity Index (SI): IC50 (MAO-A)/IC50 (MAO-B); for IC50: five doses 10-0.001 µM, triplicate; for inhibition at 10 µM: single dose 10 µM", "protocol": "(§1) Biological evaluation of the synthesized melatonin derivatives over both MAO-A and MAO-B was performed as reported previously. A detailed description of the protocol is in the Supplementary Materials.\nFirst, the synthesized melatonin analogues (3a–x) were biologically evaluated over an MAO-B recombinant enzyme. The experiment was performed using Amplex® Red reagent technology. This technology offers quantitative enzyme activity sensitive detection, a wider dynamic range, and fluorescence emission outside the range of compound autofluorescence (if any). The Amplex® Red reagent is a colorless substrate that reacts with H2O2 in a 1:1 stoichiometry to produce a highly fluorescent resorufin; therefore, the induced inhibitory effects of the melatonin analogues over MAO-B were examined via spectrophotometry where the fluorescence rate of resorufin dye formation was measured.\nAccordingly, compounds 3n, 3r, and 3u–w were further tested to determine their IC50 values over MAO-B in triplicate from the dose–response inhibition curves using Sigma-Plot software 13.0.\n(§2) 6. Materials and methods of monoamine oxidase (MAO) enzyme assay\nThe inhibitory activity of MAO-A, B enzyme of the compounds was evaluated based on previously described method. The MAO activity was measured in relative fluorescence units (RFU) evoked by peroxidase-catalyzed oxidation of Amplex Red® to resorufin, in which H2O2 generated by MAO reaction was used as the […]. Human recombinant MAO-A (hMAO-A) and MAO-B (hMAO-B) enzyme expressed in insect cells were obtained from Sigma Aldrich. The 2 μL of test compound in DMSO (final concentration: 1 nM – 10 μM) was treated with 98 μL of hMAO enzyme solution in 50 mM sodium phosphate buffer (pH 7.4, final protein amounts: ~1.25 μg protein/well for MAO-A and ~2.5 μg protein/well for MAO -B) on 96-well black plate and incubated for 15 min at 37 °C. Then 100 μL of reaction working solution which is mixed solution of 400 μM Amplex Red® (Cayman, final concentration: 200 μM), 2 U/mL horseradish peroxidase ( Sigma-Aldrich, final concentration: 1 U/mL) and 2 mM substrate ( p-tyramine for MAO -A, benzylamine for MAO -B, Sigma-Aldrich, final concentration: 1 mM) in 50 mM sodium phosphate buffer (pH 7.4) were added and incubated for 20 min at 37 °C in the dark. The fluorescent intensity was quantified using a microplate reader (SpectraMax®i3, Molecular Device) with an excitation at 545 nm and an emission at 590 nm. The 50% inhibitory concentrations (IC50) of compounds were determined as the mean ± S.E.M. in triplicate from the dose-response inhibition curves using SigmaPlot® 13.0. […]"}, "[3]": {"biological_target": "T2, Human recombinant MAO-A (hMAO-A) (Homo sapiens, UniProt P21397)", "T2 construct": "purchased Sigma Aldrich; host or cells: insect cells", "T2 sequence (P21397 1-527)": "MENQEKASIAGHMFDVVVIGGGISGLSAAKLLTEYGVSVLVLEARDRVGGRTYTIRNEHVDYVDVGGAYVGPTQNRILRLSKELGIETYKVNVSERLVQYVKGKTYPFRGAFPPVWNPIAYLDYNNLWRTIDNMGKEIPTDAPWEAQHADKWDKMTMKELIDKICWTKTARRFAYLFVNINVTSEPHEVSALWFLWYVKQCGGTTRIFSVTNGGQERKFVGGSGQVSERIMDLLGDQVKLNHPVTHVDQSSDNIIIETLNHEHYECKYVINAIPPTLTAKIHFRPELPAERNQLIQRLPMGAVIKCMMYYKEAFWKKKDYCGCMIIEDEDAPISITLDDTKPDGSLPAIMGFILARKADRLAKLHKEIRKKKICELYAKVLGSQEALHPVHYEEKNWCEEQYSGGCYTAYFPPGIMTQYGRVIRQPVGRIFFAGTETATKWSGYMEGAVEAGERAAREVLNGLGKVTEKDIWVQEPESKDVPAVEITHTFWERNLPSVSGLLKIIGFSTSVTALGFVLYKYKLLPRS", "assay": "MAO-A enzyme assay (Amplex Red), selectivity", "assay_type": "biochemical", "protocol": "as §1, §2\nThe inhibitory activity of MAO-A, B enzyme of the compounds was evaluated based on previously described method. The MAO activity was measured in relative fluorescence units (RFU) evoked by peroxidase-catalyzed oxidation of Amplex Red® to resorufin, in which H2O2 generated by MAO reaction was used as the […]. Human recombinant MAO-A (hMAO-A) and MAO-B (hMAO-B) enzyme expressed in insect cells were obtained from Sigma Aldrich. The 2 μL of test compound in DMSO (final concentration: 1 nM – 10 μM) was treated with 98 μL of hMAO enzyme solution in 50 mM sodium phosphate buffer (pH 7.4, final protein amounts: ~1.25 μg protein/well for MAO-A and ~2.5 μg protein/well for MAO -B) on 96-well black plate and incubated for 15 min at 37 °C. Then 100 μL of reaction working solution which is mixed solution of 400 μM Amplex Red® (Cayman, final concentration: 200 μM), 2 U/mL horseradish peroxidase ( Sigma-Aldrich, final concentration: 1 U/mL) and 2 mM substrate ( p-tyramine for MAO -A, benzylamine for MAO -B, Sigma-Aldrich, final concentration: 1 mM) in 50 mM sodium phosphate buffer (pH 7.4) were added and incubated for 20 min at 37 °C in the dark. The fluorescent intensity was quantified using a microplate reader (SpectraMax®i3, Molecular Device) with an excitation at 545 nm and an emission at 590 nm. The 50% inhibitory concentrations (IC50) of compounds were determined as the mean ± S.E.M. in triplicate from the dose-response inhibition curves using SigmaPlot® 13.0.\nmonoamine oxidase inhibitors. Bioorganic & medicinal chemistry 2015, 23, 6486-6496,"}, "[4]": {"assay": "Neuroprotection against 6-OHDA-induced oxidative toxicity in PC12 cells (MTT)", "details": "rat", "protocol": "(§3) Control cells were incubated in an equivalent volume of DMSO to a final concentration of 0.3%. Neuroprotective effects of the tested compounds on the toxicity induced by 6-OHDA or rotenone in PC12 cells were evaluated as described previously with slight modifications. In brief, cells were pre-treated with the tested compounds or rasagiline at the indicated concentrations for 4 h. Next, they were exposed to 6-OHDA (50 μM) or rotenone (1 μM) for 24 h. In another set of experiments, the influence of HO-1 inhibitor, ZnPP, on the neuroprotective effects of the tested compounds against 6-OHDA-induced oxidative damage was investigated as previously reported. Briefly, the cells were pre-treated with the tested compounds for 4 h and then incubated with 0.2 µM of ZnPP for 30 min. Subsequently, 6-OHDA was added at a final concentration of 50 µM and incubated for 24 h.\nAfter the desired treatment, cell viability was determined by MTT assay as described previously. Briefly, MTT was added to the cells at the final concentration of 0.5 mg/mL, which was followed by incubation for 3 h at 37 °C. […] The absorbance of the dissolved solution was measured at 550 nm using a microplate reader (SpectraMax M2^e, Molecular Devices, Sunnyvale, CA, USA). The cell viability was presented as the percentage of the absorbance measured in the vehicle-treated control cells."}, "[5]": {"assay": "Neuroprotection against rotenone-induced toxicity in PC12 cells (MTT)", "details": "rat", "protocol": "as §3\nAfter the desired treatment, cell viability was determined by MTT assay as described previously. Briefly, MTT was added to the cells at the final concentration of 0.5 mg/mL, which was followed by incubation for 3 h at 37 °C. The supernatants were carefully removed, and then, 300 μL of DMSO was added to each well to dissolve formazan precipitate. The absorbance of the dissolved solution was measured at 550 nm using a microplate reader (SpectraMax M2^e, Molecular Devices, Sunnyvale, CA, USA). The cell viability was presented as the percentage of the absorbance measured in the vehicle-treated control cells."}}}
{"molecule": "O=C(Nc1ccc2c(ccn2C(=O)c2cccc(F)c2)c1)c1cnccn1", "note": "[N-(1-(3-fluorobenzoyl)-1H-indol-5-yl)pyrazine-2-carboxamide]", "values": [{"measurement": "IC50", "setting": "[1]", "result": 780, "unit": "nM"}, {"measurement": "Ki", "setting": "[1]; competitive", "result": 94.5, "unit": "nM"}]}
{"molecule": "O=C(Nc1ccc2[nH]ccc2c1)c1cccc(C(F)(F)F)c1", "note": "[3u, N-(1H-indol-5-yl)-3-(trifluoromethyl)benzamide]", "values": [{"measurement": "Selectivity Index (SI)", "setting": "[2]", "result": ">83"}, {"measurement": "IC50", "setting": "[2]", "result": 1200, "unit": "nM"}, {"measurement": "inhibition at 10 µM", "setting": "[2]", "result": "85.12 ± 0.22", "unit": "%"}, {"measurement": "IC50", "setting": "[3]", "result": "> 100", "unit": "µM"}, {"measurement": "melting point", "result": "148 to 150", "unit": "°C"}]}
{"molecule": "O=C(Nc1ccc2[nH]ccc2c1)c1cc(Cl)cc(Cl)c1", "note": "[3w, 3,5-Dichloro-N-(1H-indol-5-yl)benzamide]", "values": [{"measurement": "Selectivity Index (SI)", "setting": "[2]", "result": ">41"}, {"measurement": "IC50", "setting": "[2]", "result": 2410, "unit": "nM"}, {"measurement": "inhibition at 10 µM", "setting": "[2]", "result": "72.63 ± 0.32", "unit": "%"}, {"measurement": "IC50", "setting": "[3]", "result": "> 100", "unit": "µM"}, {"measurement": "melting point", "result": "199 to 201", "unit": "°C"}]}
{"molecule": "NCCc1cc(O)c(O)cc1O", "note": "[6-OHDA, 6-Hydroxydopamine]", "values": [{"measurement": "viability at 24 h, 50 µM", "setting": "[4]", "result": "50.9 ± 3.1", "unit": "%"}]}
{"molecule": "C=C(C)[C@H]1Cc2c(ccc3c2O[C@@H]2COc4cc(OC)c(OC)cc4[C@@H]2C3=O)O1", "note": "[rotenone, reference compound]", "values": [{"measurement": "viability at 24 h, 1 μM", "setting": "[5]", "result": "64.4 ± 1.4", "unit": "%"}]}
{"molecule": "O=C(Nc1ccc2[nH]ccc2c1)c1ccc(C(F)(F)F)cc1", "note": "[3v, N-(1H-indol-5-yl)-4-(trifluoromethyl)benzamide]", "values": [{"measurement": "Selectivity Index (SI)", "setting": "[2]", "result": ">151"}, {"measurement": "IC50", "setting": "[2]", "result": 660, "unit": "nM"}, {"measurement": "inhibition at 10 µM", "setting": "[2]", "result": "91.22 ± 0.11", "unit": "%"}, {"measurement": "IC50", "setting": "[3]", "result": "> 100", "unit": "µM"}, {"measurement": "melting point", "result": "206 to 207", "unit": "°C"}]}
